{"source": "ChEMBL document CHEMBL3885861", "about": "“Open TG-GATES”", "organism": "Rattus norvegicus", "test": "Open TG-GATES - Regimen: Daily Repeat", "format": "toxicity, organism-based, Sprague-Dawley", "parameters": "regimen Daily Repeat, gender Male, age 6 weeks", "settings": "in vivo, po, 3 mg/kg, […], route gavage, dose level Low; for KIDNEY_L / KIDNEY_R / KIDNEY_TOTAL: tissue Kidney; for LIVER: tissue Liver; for A/G / ALP / ALT / AST / BUN / CRE / Ca / Cl / DBIL / GLC / IP / K / LDH / Na / PL / RALB / TBIL / TC / TG / TP / gamma-GTP: tissue Plasma"}
{"compound": "CN(C)CCC(c1ccc(Cl)cc1)c1ccccn1", "note": "(stereo unspecified) [CHLORPHENIRAMINE]", "values": [{"measurement": "Lym", "setting": "tissue Blood, time 28 day", "result": 77.4, "unit": "%"}, {"measurement": "MCH", "setting": "tissue Blood, time 28 day", "result": 19, "unit": "pg"}, {"measurement": "MCHC", "setting": "tissue Blood, time 28 day", "result": 33.5, "unit": "%"}, {"measurement": "MCV", "setting": "tissue Blood, time 28 day", "result": 56.8, "unit": "fL"}, {"measurement": "Mono", "setting": "tissue Blood, time 28 day", "result": 2.4, "unit": "%"}, {"measurement": "Neu", "setting": "tissue Blood, time 28 day", "result": 18, "unit": "%"}, {"measurement": "PT", "setting": "tissue Blood, time 28 day", "result": 14.5, "unit": "s"}, {"measurement": "Plat", "setting": "tissue Blood, time 28 day", "result": 107.8, "unit": "x10_4/uL"}, {"measurement": "RBC", "setting": "tissue Blood, time 28 day", "result": 819.6, "unit": "x10_4/ul"}, {"measurement": "Ret", "setting": "tissue Blood, time 28 day", "result": 2.4, "unit": "%"}, {"measurement": "WBC", "setting": "tissue Blood, time 28 day", "result": 82.8, "unit": "x10_2/uL"}, {"measurement": "KIDNEY_L", "setting": "time 7 day", "result": 1.1, "unit": "g"}, {"measurement": "KIDNEY_R", "setting": "time 7 day", "result": 1.1, "unit": "g"}, {"measurement": "KIDNEY_TOTAL", "setting": "time 7 day", "result": 2.2, "unit": "g"}, {"measurement": "KIDNEY_L", "setting": "time 14 day", "result": 1.2, "unit": "g"}, {"measurement": "KIDNEY_R", "setting": "time 14 day", "result": 1.2, "unit": "g"}, {"measurement": "KIDNEY_TOTAL", "setting": "time 14 day", "result": 2.5, "unit": "g"}, {"measurement": "KIDNEY_L", "setting": "time 28 day", "result": 1.4, "unit": "g"}, {"measurement": "KIDNEY_R", "setting": "time 28 day", "result": 1.4, "unit": "g"}, {"measurement": "KIDNEY_TOTAL", "setting": "time 28 day", "result": 2.8, "unit": "g"}, {"measurement": "LIVER", "setting": "time 7 day", "result": 12.6, "unit": "g"}, {"measurement": "LIVER", "setting": "time 14 day", "result": 14.8, "unit": "g"}, {"measurement": "LIVER", "setting": "time 28 day", "result": 15.6, "unit": "g"}, {"measurement": "A/G", "setting": "time 7 day", "result": 0.8}, {"measurement": "ALP", "setting": "time 7 day", "result": 1694.2, "unit": "IU/L"}, {"measurement": "ALT", "setting": "time 7 day", "result": 41.6, "unit": "IU/L"}, {"measurement": "AST", "setting": "time 7 day", "result": 68, "unit": "IU/L"}, {"measurement": "BUN", "setting": "time 7 day", "result": 15.6, "unit": "mg/dL"}, {"measurement": "CRE", "setting": "time 7 day", "result": 0.2, "unit": "mg/dL"}, {"measurement": "Ca", "setting": "time 7 day", "result": 11.4, "unit": "mg/dL"}, {"measurement": "Cl", "setting": "time 7 day", "result": 106.2, "unit": "meq/L"}, {"measurement": "DBIL", "setting": "time 7 day", "result": 0.014, "unit": "mg/dL"}, {"measurement": "GLC", "setting": "time 7 day", "result": 194, "unit": "mg/dL"}, {"measurement": "IP", "setting": "time 7 day", "result": 7.7, "unit": "mg/dL"}, {"measurement": "K", "setting": "time 7 day", "result": 4.2, "unit": "meq/L"}, {"measurement": "LDH", "setting": "time 7 day", "result": 93, "unit": "IU/L"}, {"measurement": "Na", "setting": "time 7 day", "result": 144, "unit": "meq/L"}, {"measurement": "PL", "setting": "time 7 day", "result": 159.8, "unit": "mg/dL"}, {"measurement": "RALB", "setting": "time 7 day", "result": 2.7, "unit": "g/dL"}, {"measurement": "TBIL", "setting": "time 7 day", "result": 0.032, "unit": "mg/dL"}, {"measurement": "TC", "setting": "time 7 day", "result": 77.8, "unit": "mg/dL"}, {"measurement": "TG", "setting": "time 7 day", "result": 135, "unit": "mg/dL"}, {"measurement": "TP", "setting": "time 7 day", "result": 6, "unit": "g/dL"}, {"measurement": "gamma-GTP", "setting": "time 7 day", "result": 1, "unit": "IU/L"}, {"measurement": "A/G", "setting": "time 14 day", "result": 0.8}, {"measurement": "ALP", "setting": "time 14 day", "result": 1670, "unit": "IU/L"}, {"measurement": "ALT", "setting": "time 14 day", "result": 39.2, "unit": "IU/L"}, {"measurement": "AST", "setting": "time 14 day", "result": 64.2, "unit": "IU/L"}, {"measurement": "BUN", "setting": "time 14 day", "result": 16.4, "unit": "mg/dL"}, {"measurement": "CRE", "setting": "time 14 day", "result": 0.2, "unit": "mg/dL"}, {"measurement": "Ca", "setting": "time 14 day", "result": 11.1, "unit": "mg/dL"}, {"measurement": "Cl", "setting": "time 14 day", "result": 105.2, "unit": "meq/L"}, {"measurement": "DBIL", "setting": "time 14 day", "result": 0.02, "unit": "mg/dL"}, {"measurement": "GLC", "setting": "time 14 day", "result": 194, "unit": "mg/dL"}, {"measurement": "IP", "setting": "time 14 day", "result": 7.7, "unit": "mg/dL"}, {"measurement": "K", "setting": "time 14 day", "result": 4.1, "unit": "meq/L"}, {"measurement": "LDH", "setting": "time 14 day", "result": 103.6, "unit": "IU/L"}, {"measurement": "Na", "setting": "time 14 day", "result": 143.4, "unit": "meq/L"}, {"measurement": "PL", "setting": "time 14 day", "result": 160.8, "unit": "mg/dL"}, {"measurement": "RALB", "setting": "time 14 day", "result": 2.8, "unit": "g/dL"}, {"measurement": "TBIL", "setting": "time 14 day", "result": 0.034, "unit": "mg/dL"}, {"measurement": "TC", "setting": "time 14 day", "result": 77, "unit": "mg/dL"}, {"measurement": "TG", "setting": "time 14 day", "result": 153, "unit": "mg/dL"}, {"measurement": "TP", "setting": "time 14 day", "result": 6.1, "unit": "g/dL"}, {"measurement": "gamma-GTP", "setting": "time 14 day", "result": 1, "unit": "IU/L"}, {"measurement": "A/G", "setting": "time 28 day", "result": 0.8}, {"measurement": "ALP", "setting": "time 28 day", "result": 1190.6, "unit": "IU/L"}, {"measurement": "ALT", "setting": "time 28 day", "result": 38.6, "unit": "IU/L"}, {"measurement": "AST", "setting": "time 28 day", "result": 63.8, "unit": "IU/L"}, {"measurement": "BUN", "setting": "time 28 day", "result": 17, "unit": "mg/dL"}, {"measurement": "CRE", "setting": "time 28 day", "result": 0.2, "unit": "mg/dL"}, {"measurement": "Ca", "setting": "time 28 day", "result": 10.6, "unit": "mg/dL"}, {"measurement": "Cl", "setting": "time 28 day", "result": 107.6, "unit": "meq/L"}, {"measurement": "DBIL", "setting": "time 28 day", "result": 0.014, "unit": "mg/dL"}, {"measurement": "GLC", "setting": "time 28 day", "result": 186.2, "unit": "mg/dL"}, {"measurement": "IP", "setting": "time 28 day", "result": 6.2, "unit": "mg/dL"}, {"measurement": "K", "setting": "time 28 day", "result": 4, "unit": "meq/L"}, {"measurement": "LDH", "setting": "time 28 day", "result": 70.4, "unit": "IU/L"}, {"measurement": "Na", "setting": "time 28 day", "result": 145, "unit": "meq/L"}, {"measurement": "PL", "setting": "time 28 day", "result": 156.2, "unit": "mg/dL"}, {"measurement": "RALB", "setting": "time 28 day", "result": 2.8, "unit": "g/dL"}, {"measurement": "TBIL", "setting": "time 28 day", "result": 0.028, "unit": "mg/dL"}, {"measurement": "TC", "setting": "time 28 day", "result": 75.2, "unit": "mg/dL"}, {"measurement": "TG", "setting": "time 28 day", "result": 148, "unit": "mg/dL"}, {"measurement": "TP", "setting": "time 28 day", "result": 6.4, "unit": "g/dL"}, {"measurement": "gamma-GTP", "setting": "time 28 day", "result": 0.8, "unit": "IU/L"}]}
